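Each compound was tested at five concentrations against cells in 96-well plates for 48 hours. TGI is the concentration that stops growth completely.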
Columns and labels:
Assay in all cases: NCI tumour cell line growth inhibition, 48 h
786-0 renal = system: 786-0 renal
HL-60(TB) leukemia = system: HL-60(TB) leukemia
OVCAR-8 ovarian = system: OVCAR-8 ovarian
K-562 leukemia = system: K-562 leukemia
UACC-62 melanoma = system: UACC-62 melanoma
M14 melanoma = system: M14 melanoma
SNB-75 CNS = system: SNB-75 CNS
MOLT-4 leukemia = system: MOLT-4 leukemia
OVCAR-5 ovarian = system: OVCAR-5 ovarian
TK-10 renal = system: TK-10 renal
HT29 colon = system: HT29 colon
KM20L2 colon = system: KM20L2 colon
SR leukemia = system: SR leukemia
HS 578T breast = system: HS 578T breast
DU-145 prostate = system: DU-145 prostate
OVCAR-4 ovarian = system: OVCAR-4 ovarian
SF-268 CNS = system: SF-268 CNS
NCI/ADR-RES ovarian = system: NCI/ADR-RES ovarian
SF-539 CNS = system: SF-539 CNS
LOX IMVI melanoma = system: LOX IMVI melanoma

| SMILES | TGI (786-0 renal) | TGI (HL-60(TB) leukemia) | TGI (OVCAR-8 ovarian) | TGI (K-562 leukemia) | TGI (UACC-62 melanoma) | TGI (M14 melanoma) | TGI (SNB-75 CNS) | TGI (MOLT-4 leukemia) | TGI (OVCAR-5 ovarian) | TGI (TK-10 renal) | TGI (HT29 colon) | TGI (KM20L2 colon) | TGI (SR leukemia) | TGI (HS 578T breast) | TGI (DU-145 prostate) | TGI (OVCAR-4 ovarian) | TGI (SF-268 CNS) | TGI (NCI/ADR-RES ovarian) | TGI (SF-539 CNS) | TGI (LOX IMVI melanoma) |
| --- | --- | --- | --- | --- | --- | --- | --- | --- | --- | --- | --- | --- | --- | --- | --- | --- | --- | --- | --- | --- |
| O=C1CCCC2=C(N1)C(=O)C=CC2=O | 57.5 µM | 73.5 µM | 64.2 µM | 32 µM | 56.7 µM | 55.1 µM | 60 µM | 31.5 µM | 48.6 µM | 56.9 µM | 59 µM | > 100 µM | 57.8 µM | 79.4 µM | 31.2 µM | 67.6 µM | 67.9 µM | > 70.5 µM | 59.1 µM | > 65.8 µM |
| O=C(O)C(Cc1c[nH]c2ccccc12)N=Cc1nc(-c2ccccc2)oc1O (centres undefined) | > 100 µM | > 100 µM | > 100 µM | > 100 µM | > 100 µM | > 100 µM | > 100 µM | > 100 µM | > 100 µM | > 100 µM | > 100 µM | > 100 µM | > 100 µM | – | – | > 100 µM | > 100 µM | – | > 100 µM | > 100 µM |
| COC(=O)N/N=C(/CCN1CCCC1)CC(c1ccccc1)c1c(O)c2ccccc2oc1=O (centres undefined) | > 100 µM | > 100 µM | > 100 µM | > 100 µM | > 100 µM | > 100 µM | > 100 µM | > 100 µM | > 100 µM | > 100 µM | > 100 µM | > 100 µM | > 100 µM | – | – | > 100 µM | > 100 µM | – | > 100 µM | > 100 µM |
